Legend:
[1] = molecular target: T1, Thromboxane-A synthase (Homo sapiens) (UniProt P24557); test: Percent inhibition against thromboxane A2 synthase by the compound at a concentration of 10e-6 M
T1 sequence (whole entry): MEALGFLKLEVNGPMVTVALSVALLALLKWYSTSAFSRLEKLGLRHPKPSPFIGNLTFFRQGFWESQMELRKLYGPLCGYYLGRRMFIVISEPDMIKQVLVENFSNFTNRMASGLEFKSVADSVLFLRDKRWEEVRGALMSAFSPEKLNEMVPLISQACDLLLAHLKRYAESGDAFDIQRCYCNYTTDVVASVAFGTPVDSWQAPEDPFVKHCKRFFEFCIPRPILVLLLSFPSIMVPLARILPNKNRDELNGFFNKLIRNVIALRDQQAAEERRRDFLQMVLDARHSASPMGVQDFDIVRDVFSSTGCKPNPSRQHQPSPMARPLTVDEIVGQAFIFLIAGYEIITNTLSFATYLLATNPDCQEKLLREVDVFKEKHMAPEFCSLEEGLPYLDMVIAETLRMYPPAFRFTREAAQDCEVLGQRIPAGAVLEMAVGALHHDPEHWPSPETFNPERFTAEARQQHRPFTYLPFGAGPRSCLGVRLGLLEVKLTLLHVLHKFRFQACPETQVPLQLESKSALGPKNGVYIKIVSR

[2] = molecular target: T2, Thromboxane A2 receptor (Homo sapiens, UniProt P21731); test: In vitro inhibitory concentration of compound against thromboxane A2 receptor
T2 sequence (P21731 whole entry): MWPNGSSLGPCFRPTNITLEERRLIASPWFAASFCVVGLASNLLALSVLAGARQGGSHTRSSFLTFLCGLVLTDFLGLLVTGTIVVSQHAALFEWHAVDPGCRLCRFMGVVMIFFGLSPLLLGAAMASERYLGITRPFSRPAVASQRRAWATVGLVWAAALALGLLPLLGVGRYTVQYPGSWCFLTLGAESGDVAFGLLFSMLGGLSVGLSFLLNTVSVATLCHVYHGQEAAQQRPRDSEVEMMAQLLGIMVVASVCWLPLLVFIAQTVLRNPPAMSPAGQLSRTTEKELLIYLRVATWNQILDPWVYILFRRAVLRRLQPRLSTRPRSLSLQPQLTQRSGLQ

CCCCCNC(=O)NS(=O)(=O)c1cc([N+](=O)[O-])ccc1NC1CCCCC1
inhibition [1]: 97.4%

CC(C)(C)/N=C(\NC#N)Nc1cccc(/C(=C/CCCC(=O)O)c2cccnc2)c1
IC50 [2]: 11 nM

Source: ChEMBL document CHEMBL1134019, “Structure determination and comparison of BM567, a sulfonylurea, with terbogrel, two compounds with dual action, thromboxane receptor antagonism and thromboxane synthase inhibition” (Bioorg Med Chem Lett, 2001)
